Consider one substance from patent publication US20090181910A1, “METHOD OF PREVENTION AND ALLEVIATION OF TOXICITY BY MODULATION OF IRF3” (priority 2006, published 2009).

This test deals with CRBPII. As to the kind of experiment: RAW 264.7 Q-PCR: CRBPII. The class given is cell-based, murine. As to conditions: RXRα overexpressing RAW 264.7 cells; FIG. 10d.

As to “polyinosinic:polycytidylic acid [polyI:C]”, the “LG268 induced CRBPII” value is recorded as “unable to repress LG268 induced CRBPII”.
